The nature of the data set: Solubility of DXM in the 6:1 (v/v) DCM to THF spin dope co-solvent. The data set is classed as physicochemical. To be noted: 6:1 (v/v) DCM to THF co-solvent (spin dope), organic solvent or mixture; 6:1 (v/v) DCM to THF with PLLA; read-out: maximum solubility in co-solvent solution. As to the method:
PLLA (7.5% w/v), DXM-loaded (1.0%, 2.4%, 4.8% w/w) and unloaded (0% w/w) microfibers were wet spun by phase inversion. PLLA (526.9±0.3 mg) was dissolved in a co-solvent ratio of 6:1 (v/v) DCM to THF. […] The addition of THF was necessary to increase DXM solubility within the spin dope. The polymer/drug solution was loaded into a 5 mL syringe fitted with a 22-gauge spinneret and placed in a syringe pump with a solution flow rate of 0.06 mL/min. […] A rotating mandrel placed above the spin bath was used to collect microfibers for further analysis. Each formulation in Examples herein was characterized from multiple regions of meter-long microfiber bundles spun at the same time from one spin dope solution.

SMILES strings stand for the structures. In brackets after ≈: the same amount, converted by molar mass.

What is called solubility is the concentration that dissolves in the medium under given conditions. Turning to `C[C@@H]1C[C@H]2[C@@H]3CCC4=CC(=O)C=C[C@]4(C)[C@@]3(F)[C@@H](O)C[C@]2(C)[C@@]1(O)C(=O)CO` [DXM, Dexamethasone], the solubility was approximately 3600 µg/mL (≈ 9.17 mM).
